Laboratory results as given in US11459315B2, “Modulators of methyl modifying enzymes, compositions and uses thereof” (Constellation Pharmaceuticals, Inc., priority 2017, dated 2022).
Read-outs that look alike come from different tables or passages of the source.

Assays:
[1] = system: H3K27me3 mark in HeLa cells (EZH2); assay: H3K27me3 Alpha Hela Assay (AlphaLISA); assay type: cell-based
Protocol: H3K27me3 Alpha Hela Assay (AlphaLISA). Ten different doses of each test compound (in a series of 3-fold dilutions) were plated in duplicate 384-well tissue culture treated plates (Catalog #6007680; Perkin Elmer, Waltham, Mass.). Hela cells grown in culture were trypsinized and counted using a Countess® cell counter (Catalog #C10281; Life Technologies, Grand Island, N.Y.). Cell were diluted to 67,000 cells per mL in 10% DMEM (Catalog #10569-010 Life Technologies, Grand Island, N.Y.) and 15 μL (1,000 cells) were plated into each well using the Biotek MicroFlo™ Select Dispenser (BioTek Instruments, Inc. Vermont, USA),) of the 384-well plate. Plates were incubated at 37° C./5% CO2 for 72 hrs. One of the duplicate plates was processed for HeLa assay and the other for viability.
5 μL of Cell-Histone Lysis buffer (1×) (Catalog #AL009F1 Perkin Elmer; Waltham, Mass.) per well was added to the plate processed for AlphaLISA and the plate was incubated at RT for 30 minutes on a plate shaker with low speed (Model #4625-Q Thermo Scientific; Waltham, Mass.). Then, 10 μL per well Histone Extraction buffer (catalog #AL009F2; Perkin Elmer; Waltham, Mass.) was added and the plate further incubated at RT for 20 min on plate shaker with low speed. Next, 10 μL of 5× mix of anti-K27me3 acceptor beads plus Biotinylated anti-Histone H3 (C-ter) Antibody (diluted to 3 nM final) (Catalog #AL118 Perkin Elmer; Waltham, Mass.) was added in each well. Dilution of the acceptor beads and anti-Histone H3 was done in 1× Histone Detection buffer (Catalog #AL009F3 Perkin Elmer; Waltham, Mass.) which was produced by diluting the 10× stock provided. The plate was sealed with an aluminum plate sealer and incubated at 23° C. for 60 min. Next, 10 μL 5× solution of Streptavidin Donor beads were added (Catalog #6760002 Perkin Elmer; Waltham, Mass.) (20 μg/mL final in 1× Histone Detection Buffer), =plate was sealed with Aluminum plate sealer and incubated at 23° C. for 30 min. The plates were then read using an EnVision-Alpha Reader (model #2104 Perkin Elmer; Waltham, Mass.).
Data from both assays was analyzed using Genedata (Basel, Switzerland). Data files were imported to Genedata and assay conditions were specified. A unique Analysis ID was created and the data files analysed to measure dose-dependent inhibition of H3K27me3 mark and cell viability respectively. Readout of DMSO wells were used to normalize the data. Resulting curves were fitted using Smart fit application (Genedata; Basel, Switzerland). The data was checked for quality, validated and integrated in excel format using Stardrop (Optibruim, Cambridge, UK).
EC50 values are reported as follows: “A” indicates an EC50 value of less than 10 nM; “B” indicates an EC50 value of 10 nM to 100 nM; “C” indicates an EC50 value of greater than 100 nM; and “ND” is not determined.

[2] = target: PRC2 containing wt EZH2 (Homo sapiens (Human), UniProt Q15910); assay: EZH2 biochemical assay (IC50), 3H-SAM incorporation into biotinylated H3 peptide
Protocol: EZH2 biochemical assay (IC50): Compound potencies were assessed through incorporation of ^3H-SAM into a biotinylated H3 peptide. Specifically, 30 pM PRC2 containing wt EZH2 (pentameric complex prepared in-house) was pre-incubated with 450 nM SAM, 450 nM ^3H-SAM, 2 μM H3K27me3 activating peptide (H2N-[…](Kme3)[…]-amide) and compounds (as 10 point duplicate dose response titrations in DMSO, final assay 0.8% DMSO (v/v)) for 3-5 h in 50 mM Tris (pH 8.5), 1 mM DTT, 0.07 mM Brij-35, 0.1% BSA, and 0.8% DMSO in a total volume of 12.5 μl. Reaction was initiated with biotinylated H3 substrate peptide (H2N-[…](Kme1)[…]-NTPEGBiot) as a 2 μM stock in 12.5 μl of buffer and allowed to react at room temperature for 18-22 h. Quenching was accomplished by addition of 20 μl of STOP solution (50 mM Tris (pH 8.5), 200 mM EDTA, 2 mM SAH). 35 μl of the quenched solution was transferred to streptavidin coated FlashPlates (PerkinElmer), incubated 1-2 h, washed, and read in a TopCount Reader (PerkinElmer). IC50s were calculated in Genedata Screener using non-linear least square four parameter fits, where the four parameters were IC50, Hill slope, pre-transitional baseline (0% INH), and post-transitional baseline (100% INH).
IC50 values are reported as follows: “A” indicates an IC50 value of less than 0.5 nM; “B” indicates an IC50 value of 0.5 nM to 5 nM; “C” indicates an IC50 value of greater than 5 nM for each enzyme; and “ND” is not determined.

[3] = Homo sapiens, HeLa, HeLa cell assay, Table 3 classes, read-out: EC50 Cellular Activity
[4] = Homo sapiens, HeLa, 72 h, HeLa cells, 72 hrs, read-out: EZH2 Cell H3K27me3 Alpha HeLa (EC50 K27me3)
[5] = 30 pM PRC2 containing wt EZH2; 3-5 h pre-incubation; read-out: EZH2 (IC50)
[6] = HeLa cells, 72 hrs, read-out: EZH2 Cell H3K27me3 Alpha HeLa (EC50 K27me3)
[7] = EZH2 (IC50), 30 pM PRC2 containing wt EZH2; 3-5 h pre-incubation
[8] = read-out: EZH2 (IC50); 30 pM PRC2 containing wt EZH2; 3-5 h pre-incubation
[9] = HeLa cell assay, Table 3 classes, read-out: EC50 Cellular Activity

PRC2 containing wt EZH2, sequence (Q15910 whole entry): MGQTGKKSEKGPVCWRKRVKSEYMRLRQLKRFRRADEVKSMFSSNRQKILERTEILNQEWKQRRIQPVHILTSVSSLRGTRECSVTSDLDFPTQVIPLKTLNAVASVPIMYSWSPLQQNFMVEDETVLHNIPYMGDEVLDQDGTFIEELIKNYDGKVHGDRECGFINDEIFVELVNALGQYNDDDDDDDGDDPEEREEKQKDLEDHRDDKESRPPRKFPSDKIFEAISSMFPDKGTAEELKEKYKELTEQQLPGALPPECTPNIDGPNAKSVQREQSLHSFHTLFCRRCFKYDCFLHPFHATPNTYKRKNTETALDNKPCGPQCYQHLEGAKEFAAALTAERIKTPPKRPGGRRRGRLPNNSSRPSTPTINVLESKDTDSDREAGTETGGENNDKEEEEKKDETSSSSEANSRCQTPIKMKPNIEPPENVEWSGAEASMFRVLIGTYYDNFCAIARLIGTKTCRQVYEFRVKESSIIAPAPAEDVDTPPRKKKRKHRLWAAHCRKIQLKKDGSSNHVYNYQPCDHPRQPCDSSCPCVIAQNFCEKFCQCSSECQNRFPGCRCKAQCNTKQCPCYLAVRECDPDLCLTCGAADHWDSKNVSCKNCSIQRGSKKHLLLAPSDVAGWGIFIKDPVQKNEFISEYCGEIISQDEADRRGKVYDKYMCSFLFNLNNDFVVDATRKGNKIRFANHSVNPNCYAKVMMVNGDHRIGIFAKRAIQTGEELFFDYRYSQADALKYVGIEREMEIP
PRC2 containing wt EZH2, sequence (O75530 whole entry partner): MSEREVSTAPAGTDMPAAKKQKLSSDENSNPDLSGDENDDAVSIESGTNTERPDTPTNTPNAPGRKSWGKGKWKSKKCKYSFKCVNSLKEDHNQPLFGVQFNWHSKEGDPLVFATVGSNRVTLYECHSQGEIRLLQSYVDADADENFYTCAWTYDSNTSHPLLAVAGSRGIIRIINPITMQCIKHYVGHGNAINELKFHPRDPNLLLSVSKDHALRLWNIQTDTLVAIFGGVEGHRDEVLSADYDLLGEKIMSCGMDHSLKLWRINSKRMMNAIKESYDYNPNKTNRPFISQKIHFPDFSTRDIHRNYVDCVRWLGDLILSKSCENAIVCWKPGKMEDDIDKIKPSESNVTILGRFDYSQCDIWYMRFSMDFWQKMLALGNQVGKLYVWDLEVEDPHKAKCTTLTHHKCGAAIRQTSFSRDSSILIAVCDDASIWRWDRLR
PRC2 containing wt EZH2, sequence (Q15022 whole entry partner): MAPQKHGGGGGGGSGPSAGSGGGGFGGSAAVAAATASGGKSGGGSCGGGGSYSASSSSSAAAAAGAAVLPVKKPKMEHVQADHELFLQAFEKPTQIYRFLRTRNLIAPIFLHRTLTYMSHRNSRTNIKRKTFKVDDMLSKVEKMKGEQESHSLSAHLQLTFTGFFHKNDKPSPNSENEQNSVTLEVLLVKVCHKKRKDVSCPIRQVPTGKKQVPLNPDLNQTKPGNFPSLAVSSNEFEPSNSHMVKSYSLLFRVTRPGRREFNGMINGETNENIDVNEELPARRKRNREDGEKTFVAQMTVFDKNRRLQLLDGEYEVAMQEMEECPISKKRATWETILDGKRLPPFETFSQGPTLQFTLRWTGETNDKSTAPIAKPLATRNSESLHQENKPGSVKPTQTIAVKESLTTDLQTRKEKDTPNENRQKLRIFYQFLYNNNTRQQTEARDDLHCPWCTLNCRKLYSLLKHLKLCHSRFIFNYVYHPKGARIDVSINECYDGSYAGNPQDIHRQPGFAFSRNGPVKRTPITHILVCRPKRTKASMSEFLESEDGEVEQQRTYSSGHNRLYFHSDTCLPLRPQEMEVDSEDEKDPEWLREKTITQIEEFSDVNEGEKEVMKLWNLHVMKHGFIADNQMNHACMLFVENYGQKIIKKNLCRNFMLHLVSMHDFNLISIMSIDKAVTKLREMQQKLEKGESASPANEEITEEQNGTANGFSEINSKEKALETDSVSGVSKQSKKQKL
PRC2 containing wt EZH2, sequence (Q09028 whole entry partner): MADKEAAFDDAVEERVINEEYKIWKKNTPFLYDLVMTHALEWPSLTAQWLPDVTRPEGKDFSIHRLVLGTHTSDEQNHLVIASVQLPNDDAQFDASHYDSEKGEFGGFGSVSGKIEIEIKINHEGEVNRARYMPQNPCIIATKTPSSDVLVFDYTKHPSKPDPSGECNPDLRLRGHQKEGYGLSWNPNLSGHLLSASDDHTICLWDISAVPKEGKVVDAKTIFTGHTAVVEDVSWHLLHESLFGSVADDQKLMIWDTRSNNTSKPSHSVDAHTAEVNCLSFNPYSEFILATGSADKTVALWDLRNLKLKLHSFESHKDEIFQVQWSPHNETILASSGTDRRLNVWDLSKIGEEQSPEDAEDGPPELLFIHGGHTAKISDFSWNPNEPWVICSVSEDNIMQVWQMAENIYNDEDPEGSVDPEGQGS
PRC2 containing wt EZH2, sequence (Q6ZN18 whole entry partner): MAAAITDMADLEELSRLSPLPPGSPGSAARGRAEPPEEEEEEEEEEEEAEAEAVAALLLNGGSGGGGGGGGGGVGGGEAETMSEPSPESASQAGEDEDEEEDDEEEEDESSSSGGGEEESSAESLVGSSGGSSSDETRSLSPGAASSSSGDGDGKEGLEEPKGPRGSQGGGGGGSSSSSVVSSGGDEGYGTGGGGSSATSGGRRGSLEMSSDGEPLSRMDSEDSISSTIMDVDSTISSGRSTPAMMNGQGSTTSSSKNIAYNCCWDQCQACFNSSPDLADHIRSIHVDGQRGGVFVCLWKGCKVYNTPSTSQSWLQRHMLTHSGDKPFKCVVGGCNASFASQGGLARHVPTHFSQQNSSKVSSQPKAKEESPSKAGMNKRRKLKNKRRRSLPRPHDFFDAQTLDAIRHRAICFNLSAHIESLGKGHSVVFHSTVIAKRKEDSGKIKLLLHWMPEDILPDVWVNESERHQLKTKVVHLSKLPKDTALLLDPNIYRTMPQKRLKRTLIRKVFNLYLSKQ

Structure (SMILES) | IC50 [2, 5] | EC50 [1, 6] | other results
Cc1cc(C)c(CNC(=O)c2c(C)n([C@H](C)C3CCOCC3)c3ccccc23)c(=O)[nH]1 | – | – | EC50 [1, 3]: 25 to 125 nM
COc1cc(C)[nH]c(=O)c1CNC(=O)c1c(C)n([C@H](C)C2CCOCC2)c2ccccc12 | – | – | EC50 [1, 3]: 25 to 125 nM
CSc1cc(C)[nH]c(=O)c1CNC(=O)c1c(C)n([C@H](C)[C@H]2CC[C@H](NC3(C)COC3)CC2)c2ccccc12 (single isomer, unassigned) [1 (isomer 1)] | < 0.5 nM | – | EC50 [1, 4]: < 10 nM
CSc1cc(C)[nH]c(=O)c1CNC(=O)c1c(C)n([C@H](C)[C@H]2CC[C@H](NC3(C)COC3)CC2)c2ccccc12 (single isomer, unassigned) [1 (isomer 2)] | < 0.5 nM | 10 to 100 nM | –
CSc1cc(C)[nH]c(=O)c1CNC(=O)c1c(C)n([C@H](C)C2CCC(NC3COC3)CC2)c2ccccc12 (single isomer, unassigned) [2 (isomer 1)] | < 0.5 nM | – | EC50 [1, 4]: < 10 nM
CSc1cc(C)[nH]c(=O)c1CNC(=O)c1c(C)n([C@H](C)C2CCC(NC3COC3)CC2)c2ccccc12 (single isomer, unassigned) [2 (isomer 2)] | < 0.5 nM | 10 to 100 nM | –
CSc1cc(C)[nH]c(=O)c1CNC(=O)c1c(C)n([C@H](C)C2CCC(N(C)C3(C)COC3)CC2)c2ccccc12 (single isomer, unassigned) [3 (isomer 1)] | < 0.5 nM | – | EC50 [1, 4]: < 10 nM
CSc1cc(C)[nH]c(=O)c1CNC(=O)c1c(C)n([C@H](C)C2CCC(N(C)C3(C)COC3)CC2)c2ccccc12 (single isomer, unassigned) [3 (isomer 2)] | < 0.5 nM | 10 to 100 nM | –
COC1CN(C2CCC([C@@H](C)n3c(C)c(C(=O)NCc4c(SC)cc(C)[nH]c4=O)c4ccccc43)CC2)C1 (single isomer, unassigned) [4 (isomer 1)] | – | – | EC50 [1, 4]: < 10 nM; IC50 [2, 7]: < 0.5 nM
COC1CN(C2CCC([C@@H](C)n3c(C)c(C(=O)NCc4c(SC)cc(C)[nH]c4=O)c4ccccc43)CC2)C1 (single isomer, unassigned) [4 (isomer 2)] | – | 10 to 100 nM | IC50 [2, 8]: < 0.5 nM
CSc1cc(C)[nH]c(=O)c1CNC(=O)c1c(C)n([C@H](C)C2OCC(NC(C)(C)C)CO2)c2ccccc12 (single isomer, unassigned) [5 (isomer 1)] | 0.5 to 5 nM | – | EC50 [1, 4]: 10 to 100 nM
CSc1cc(C)[nH]c(=O)c1CNC(=O)c1c(C)n([C@H](C)C2OCC(NC(C)(C)C)CO2)c2ccccc12 (single isomer, unassigned) [5 (isomer 2)] | < 0.5 nM | < 10 nM | –
CSc1cc(C)[nH]c(=O)c1CNC(=O)c1c(C)n([C@H](C)C2OCC(NC3(C)COC3)CO2)c2ccccc12 (single isomer, unassigned) [6 (isomer 1)] | < 0.5 nM | < 10 nM | –
CSc1cc(C)[nH]c(=O)c1CNC(=O)c1c(C)n([C@H](C)C2OCC(NC3(C)COC3)CO2)c2ccccc12 (single isomer, unassigned) [6 (isomer 2)] | 0.5 to 5 nM | > 100 nM | –
CSc1cc(C)[nH]c(=O)c1CNC(=O)c1c(C)n([C@H](C)C2OCC(N(C)C)CO2)c2ccccc12 (single isomer, unassigned) [7 (isomer 1)] | 0.5 to 5 nM | > 100 nM | –
CSc1cc(C)[nH]c(=O)c1CNC(=O)c1c(C)n([C@H](C)C2OCC(N(C)C)CO2)c2ccccc12 (single isomer, unassigned) [7 (isomer 2)] | < 0.5 nM | < 10 nM | –

Structure (SMILES) | IC50 [2, 5] | EC50 [1, 6] | other results
CSc1cc(C)[nH]c(=O)c1CNC(=O)c1c(C)n([C@H](C)C2COC2)c2ccccc12 (single isomer, unassigned) [14 (isomer 1)] | – | – | EC50 [1, 4]: 10 to 100 nM; IC50 [2, 7]: < 0.5 nM
CSc1cc(C)[nH]c(=O)c1CNC(=O)c1c(C)n([C@@H](C)C2COC2)c2ccccc12 (single isomer, unassigned) [14 (isomer 2)] | – | – | EC50 [1, 4]: > 100 nM; IC50 [2, 7]: > 5 nM
CSc1cc(C)[nH]c(=O)c1CNC(=O)c1c(C)n([C@H](C)C2OCC(N3CCC3(C)C)CO2)c2ccccc12 (single isomer, unassigned) [15 (isomer 1)] | – | < 10 nM | IC50 [2, 7]: < 0.5 nM
CSc1cc(C)[nH]c(=O)c1CNC(=O)c1c(C)n([C@H](C)C2OCC(N3CCC3(C)C)CO2)c2ccccc12 (single isomer, unassigned) [15 (isomer 2)] | – | > 100 nM | IC50 [2, 8]: < 0.5 nM
COCCN(C)C1COC([C@@H](C)n2c(C)c(C(=O)NCc3c(SC)cc(C)[nH]c3=O)c3ccccc32)OC1 (single isomer, unassigned) [16 (isomer 1)] | < 0.5 nM | < 10 nM | –
COCCN(C)C1COC([C@@H](C)n2c(C)c(C(=O)NCc3c(SC)cc(C)[nH]c3=O)c3ccccc32)OC1 (single isomer, unassigned) [16 (isomer 2)] | > 5 nM | > 100 nM | –
COC1CCC([C@@H](C)n2c(C)c(C(=O)NCc3c(SC)cc(C)[nH]c3=O)c3ccccc32)CC1 (single isomer, unassigned) [18 (isomer 1)] | – | – | EC50 [1, 4]: < 10 nM; IC50 [2, 7]: < 0.5 nM
COC1CCC([C@@H](C)n2c(C)c(C(=O)NCc3c(SC)cc(C)[nH]c3=O)c3ccccc32)CC1 (single isomer, unassigned) [18 (isomer 2)] | – | < 10 nM | IC50 [2, 8]: < 0.5 nM
COc1cnc2c(c1)c(C(=O)NCc1c(SC)cc(C)[nH]c1=O)c(C)n2[C@H](C)C1CCC(N2CC(OC(F)F)C2)CC1 (single isomer, unassigned) [125 (isomer 2)] | < 0.5 nM | – | –
Cc1cc(Cl)c(CNC(=O)c2c(C)n([C@H](C)C3OCC(NC(C)(C)C)CO3)c3ccccc23)c(=O)[nH]1 (single isomer, unassigned) [drawing 222] | – | – | EC50 [1, 9]: 5 to 25 nM
COC1CCC([C@@H](C)n2c(C)c(C(=O)NCc3c(SC)cc(C)[nH]c3=O)c3ccccc32)CC1 (single isomer, unassigned) [drawing 249] | – | – | EC50 [1, 3]: < 5 nM
CSc1cc(C)[nH]c(=O)c1CNC(=O)c1c(C)n([C@H](C)C2CCC(N3CC(OC(F)F)C3)CC2)c2ccccc12 (single isomer, unassigned) [drawing 253] | – | – | EC50 [1, 9]: 5 to 25 nM
COC1CN(C2CCC([C@@H](C)n3c(C)c(C(=O)NCc4c(SC)cc(C)[nH]c4=O)c4cccnc43)CC2)C1 (single isomer, unassigned) [drawing 260] | – | – | EC50 [1, 9]: > 125 nM
CCOC1CN(C2CCC([C@@H](C)n3c(C)c(C(=O)NCc4c(SC)cc(C)[nH]c4=O)c4cccnc43)CC2)C1 (single isomer, unassigned) [drawing 262] | – | – | EC50 [1, 9]: 25 to 125 nM
CSc1cc(C)[nH]c(=O)c1CNC(=O)c1c(C)n([C@H](C)C2CCC(NC3(C)CCOC3)CC2)c2ccccc12 (single isomer, unassigned) [drawing 270] | – | – | EC50 [1, 9]: 25 to 125 nM
